Experimental data taken from US20240368096A1 (Enanta Pharmaceuticals, Inc., priority 2022, published 2024).

System: HBV
Test: HBV infection in HepG2-NTCP cells (HBeAg AlphaLISA in supernatants)
Format: cell-based
Details: Hepatitis B virus, 192 h; HBV infection of HepG2-NTCP cells; HBeAg in supernatants at day 8 post infection; read-out: Cellular EC50
Description: HepG2-NTCP A3 cells were maintained in DMEM media supplemented with GlutaMAX™ 10% fetal bovine serum, 1% penicillin/streptomycin, and 5 μg/mL puromycin at 37° C. in a humidified atmosphere with 5% CO2 in a collagen-coated tissue culture flask.
HepG2-NTCP cells were seeded in 384 well plate containing 16,000 cells/well two days prior to the infection. On the day of infection, compounds were 3-fold serially diluted in DMSO and pre-incubated with HepG2-NTCP cells for two hours before purified HBV addition. HBV infection was carried out at 2000 GE/cell with 4% PEG, and the final concentration of DMSO is 0.5%. On day one post infection, HBV-containing media was aspirated, cells were washed once with PBS and then maintained in 2.5% DMSO containing media for the remainder of the assay.
Supernatants from infected HepG2-NTCP cells were collected at day 8 post infection, and the amount of viral antigen HBeAg was measured by HBeAg AlphaLISA detection kit (PerkinElmer) following the manufacturer's recommended protocol. Irrespective of readout, compound concentrations that reduce viral product accumulation in supernatants by […] relative to DMSO controls (EC50) are reported. EC50 ranges are as follows: A<0.1 μM; B 0.1-1 μM; C>1 μM.

First: COc1ccc(N2C[C@@H](C3CCCCC3)N(C)S(=O)(=O)c3cc(-c4ccc(F)c(C(=O)O)c4)c(Cl)cc32)cc1 [Example 306, (R)-5-(7-chloro-3-cyclohexyl-5-(4-methoxyphenyl)-2-methyl-1,1-dioxido-2,3,4,5-tetrahydrobenzo[f][1,2,5]thiadiazepin-8-yl)-2-fluorobenzoic acid]
Second: CCOc1cccc(N2C[C@@H](C3CCCCC3)N(C)S(=O)(=O)c3cc(-c4ccc(F)c(C(=O)O)c4)c(Cl)cc32)c1 [Example 308]
The EC50 of the first is higher: 100 to 1000 nM for the first, < 100 nM for the second. The second is the more potent here.

`CC(C)C[C@@H]1CN(c2ccccc2)c2cc(Cl)c(-c3ccc(OC(F)(F)F)c(C(=O)O)c3)cc2S(=O)(=O)N1C` [Example 163, (R)-5-(7-chloro-3-isobutyl-2-methyl-1,1-dioxido-5-phenyl-2,3,4,5-tetrahydrobenzo[f][1,2,5]thiadiazepin-8-yl)-2-(trifluoromethoxy)benzoic acid] and `CCC[C@@H]1CN(c2ccccc2)c2cc(Cl)c(-c3ccc(Cl)c(C(=O)O)c3)cc2S(=O)(=O)N1C` [Example 48] cannot be ordered by EC50: < 100 nM for the first, < 100 nM for the second.

`CN1[C@H](C2CCC2)CN(c2ccccc2)c2cc(Cl)c(-c3cc(F)c(C(=O)O)s3)cc2S1(=O)=O` [Example 121] and `COc1cc(-c2cc3c(cc2Cl)N(c2ccccc2)C[C@@H](C2CCCCC2)N(C)S3(=O)=O)sc1C(=O)O` [Example 118] cannot be ordered by EC50: < 100 nM for the first, < 100 nM for the second.

`CC(C)COC(=O)Nc1cc(-c2cc3c(cc2F)N(c2ccccc2)C[C@@H](C2CCCCC2)N(C)S3(=O)=O)sc1C(=O)O` [Example 266] and `CCOC(=O)Nc1cc(-c2cc3c(cc2F)N(c2ccccc2)C[C@@H](C2CCCCC2)N(C)S3(=O)=O)sc1C(=O)O` [Example 265, (R)-5-(3-cyclohexyl-7-fluoro-2-methyl-1,1-dioxido-5-phenyl-2,3,4,5-tetrahydrobenzo[f][1,2,5]thiadiazepin-8-yl)-3-((ethoxycarbonyl)amino)thiophene-2-carboxylic acid] cannot be ordered by EC50: < 100 nM for the first, < 100 nM for the second.

`COCCOc1cc2c(cc1-c1ccc(NC(=O)OCc3ccccc3)c(C(=O)O)c1)S(=O)(=O)N(C)[C@H](C1CCCCC1)CN2c1ccccc1` [Example 478, (R)-2-(((benzyloxy)carbonyl)amino)-5-(3-cyclohexyl-7-(2-methoxyethoxy)-2-methyl-1,1-dioxido-5-phenyl-2,3,4,5-tetrahydrobenzo[f][1,2,5]thiadiazepin-8-yl)benzoic acid] and `CN1[C@H](C2CCCCC2)CN(c2ccccc2)c2cc(Cl)c(-c3ccc(NS(=O)(=O)CCc4ccccc4)c(C(=O)O)c3)cc2S1(=O)=O` [Example 270] cannot be ordered by EC50: < 100 nM for the first, < 100 nM for the second.

`CC(C)C[C@@H]1CN(C2CC3(CCC3)C2)c2cc(Oc3ccccc3F)c(-c3ccc(F)c(C(=O)O)c3)cc2S(=O)(=O)N1C` [Example 467] and `CC(C)C[C@@H]1CN(c2ccccc2)c2cc(O[C@H]3CCOC3)c(-c3ccc(F)c(C(=O)O)c3)cc2S(=O)(=O)N1C` [Example 446] fall in the same range of EC50: 100 to 1000 nM for the first, 100 to 1000 nM for the second.

`CN1[C@H](C2CCCCC2)CN(c2ccccc2)c2cc(OC3CCCC3)c(-c3ccc(F)c(C(=O)O)c3)cc2S1(=O)=O` [Example 373] and `CN1[C@H](C2CCCCC2)CN(c2ccccc2)c2cc(OC3CCCCC3)c(-c3ccc(F)c(C(=O)O)c3)cc2S1(=O)=O` [Example 374] cannot be ordered by EC50: < 100 nM for the first, < 100 nM for the second.

Compared with `CN1[C@H](C2CCC2)CN(c2ccccc2)c2cc(OC(C)(C)C)c(-c3ccc(F)c(C(=O)O)c3)cc2S1(=O)=O` [Example 465], `CCCCCOc1cc2c(cc1-c1ccc(F)c(C(=O)O)c1)S(=O)(=O)N(C)[C@H](C1CCCCC1)CN2c1ccccc1` [Example 351] is lower in EC50: 100 to 1000 nM for the first, < 100 nM for the second.

`CN1[C@H](c2cccc(F)c2)CN(c2ccccc2)c2cc(Cl)c(-c3ccc(F)c(C(=O)O)c3)cc2S1(=O)=O` [Example 55] and `CN1[C@H](c2ccc(F)cc2)CN(c2ccccc2)c2cc(Cl)c(-c3ccc(F)c(C(=O)O)c3)cc2S1(=O)=O` [Example 56] fall in the same range of EC50: 100 to 1000 nM for the first, 100 to 1000 nM for the second.

First: CN1[C@H](C2CCCCC2)CN(c2cccc(C#N)c2)c2cc(Cl)c(-c3ccc(F)c(C(=O)O)c3)cc2S1(=O)=O [Example 291]
Second: CN1[C@H](C2CCCCC2)CN(c2cncc(C(F)(F)F)c2)c2cc(Cl)c(-c3ccc(F)c(C(=O)O)c3)cc2S1(=O)=O [Example 282]
The EC50 of the first is lower: < 100 nM for the first, 100 to 1000 nM for the second. The first is the more potent here.

First: Cc1sc(-c2cc3c(cc2Cl)N(c2ccccc2)C[C@@H](C2CCCCC2)N(C)S3(=O)=O)nc1C(=O)O [Example 125]
Second: CN1[C@H](C2CCCCC2)CN(c2ccccc2)c2cc(Cl)c(-c3ccc(C(=O)O)s3)cc2S1(=O)=O [Example 130, (R)-5-(7-chloro-3-cyclohexyl-2-methyl-1,1-dioxido-5-phenyl-2,3,4,5-tetrahydrobenzo[f][1,2,5]thiadiazepin-8-yl)thiophene-2-carboxylic acid]
The EC50 of the first is higher: 100 to 1000 nM for the first, < 100 nM for the second.

First: C=CC[C@H]1CN(c2ccccc2)c2cc(Cl)c(-c3cccc(C(=O)O)c3)cc2S(=O)(=O)N1C [Example 40]
Second: CN1[C@H](CC2CCC2)CN(c2ccccc2)c2cc(Cl)c(-c3ccc(F)c(C(=O)O)c3)cc2S1(=O)=O [Example 75]
The EC50 of the first is higher: > 1000 nM for the first, 100 to 1000 nM for the second. The second is the more potent here.

Compared with `O=C(O)c1cc(-c2cc3c(cc2F)N(c2ccccc2)CC2c4ccccc4CN2S3(=O)=O)ccc1F` (stereo not drawn) [Example 4], `Cc1c(F)cccc1Oc1cc2c(cc1-c1ccc(F)c(C(=O)O)c1)S(=O)(=O)N(C)[C@H](C1CCCCC1)CN2c1ccccc1` [Example 410] is lower in EC50: 100 to 1000 nM for the first, < 100 nM for the second. The second is the more potent here.

`CN1[C@H](C2CCCCC2)CN(c2ccccc2)c2cc(Cl)c(-c3cc(C(=O)O)c4ncccc4c3)cc2S1(=O)=O` [Example 210] and `CN1[C@H](C2CCCCC2)CN(c2ccccc2)c2cc(Cl)c(-c3cnc(O)c(C(=O)O)c3)cc2S1(=O)=O` [Example 193] fall in the same range of EC50: 100 to 1000 nM for the first, 100 to 1000 nM for the second.

Compared with `Cc1nnc(COc2cc3c(cc2-c2ccc(F)c(C(=O)O)c2)S(=O)(=O)N(C)[C@H](CC(C)C)CN3c2ccccc2)o1` [Example 457], `CC(C)C[C@@H]1CN(c2ccccc2)c2cc(OCCc3ccoc3)c(-c3ccc(F)c(C(=O)O)c3)cc2S(=O)(=O)N1C` [Example 461] is lower in EC50: 100 to 1000 nM for the first, < 100 nM for the second. The second is the more potent here.

Compared with `CC(C)C[C@@H]1CN(c2ccccc2)c2cc(N3CCc4ccccc43)c(-c3ccc(Cl)c(C(=O)O)c3)cc2S(=O)(=O)N1C` [Example 551], `CCCC[C@H]1CN(c2ccccc2)c2cc(N3CCCCC3)c(-c3cccc(C(=O)O)c3)cc2S(=O)(=O)N1C` [Example 540] is higher in EC50: 100 to 1000 nM for the first, > 1000 nM for the second.

`O=C(O)c1cccc(-c2cc3c(cc2F)N(c2ccccc2)C[C@H]2C[C@@H](C(F)(F)F)CN2S3(=O)=O)c1` [Example 9] and `CN1[C@H](C2CCCCC2)CN(c2ccccc2)c2cc(F)c(-c3ccc(N)c(C(=O)O)c3)cc2S1(=O)=O` [Example 158] fall in the same range of EC50: 100 to 1000 nM for the first, 100 to 1000 nM for the second.

First: CN1[C@H](C2CCCCC2)CNc2cc(-c3ccccc3F)c(-c3ccc(F)c(C(=O)O)c3)cc2S1(=O)=O [Example 569, (R)-5-(3-cyclohexyl-7-(2-fluorophenyl)-2-methyl-1,1-dioxido-2,3,4,5-tetrahydrobenzo[f][1,2,5]thiadiazepin-8-yl)-2-fluorobenzoic acid]
Second: CN1[C@H](C2CCCCC2)CNc2cc(OCC(F)(F)F)c(-c3ccc(Cl)c(C(=O)O)c3)cc2S1(=O)=O [Example 477]
The EC50 of the first is lower: < 100 nM for the first, 100 to 1000 nM for the second.

`CN1[C@H](C2CCCCC2)CN(c2ccccc2)c2cc(OCc3ccccc3)c(-c3cc(F)c(C(=O)O)s3)cc2S1(=O)=O` [Example 508] and `CN1[C@H](C2CCCCC2)CN(c2ccccc2)c2cc(OCCOC3CC3)c(-c3cc(F)c(C(=O)O)s3)cc2S1(=O)=O` [Example 496] cannot be ordered by EC50: < 100 nM for the first, < 100 nM for the second.

`CC(C)[C@@H]1CN(c2ccccc2)c2cc(Cl)c(-c3cc(F)c(C(=O)O)s3)cc2S(=O)(=O)N1C` [Example 120] and `CC(C)CS(=O)(=O)Nc1cc(-c2cc3c(cc2Cl)N(c2ccccc2)C[C@@H](C2CCCCC2)N(C)S3(=O)=O)sc1C(=O)O` [Example 276] cannot be ordered by EC50: < 100 nM for the first, < 100 nM for the second.

Compared with `CN1[C@H](C2CCCCC2)CN(c2ccccc2)c2cc(OC3CC4(CCC4)C3)c(-c3ccc(F)c(C(=O)O)c3)cc2S1(=O)=O` [Example 377], `CN1[C@H](C2CCCCC2)CN(c2ccccc2)c2cc(OC3CCNCC3)c(-c3ccc(F)c(C(=O)O)c3)cc2S1(=O)=O` [Example 394, (R)-5-(3-cyclohexyl-2-methyl-1,1-dioxido-5-phenyl-7-(piperidin-4-yloxy)-2,3,4,5-tetrahydrobenzo[f][1,2,5]thiadiazepin-8-yl)-2-fluorobenzoic acid] is higher in EC50: < 100 nM for the first, > 1000 nM for the second. The first is the more potent here.

Compared with `COCCOc1cc2c(cc1-c1cc(C)c(C(=O)O)s1)S(=O)(=O)N(C)[C@H](C1CCCCC1)CN2c1ccccc1` [Example 499], `CO[C@H]1C[C@@H](Oc2cc3c(cc2-c2ccc(F)c(C(=O)O)c2)S(=O)(=O)N(C)[C@H](C2CCCCC2)CN3c2ccccc2)C1` [Example 379] is higher in EC50: < 100 nM for the first, 100 to 1000 nM for the second. The first is the more potent here.

`CN1[C@H](C2CCC(F)(F)CC2)CN(c2ccccc2)c2cc(Cl)c(-c3ccc(F)c(C(=O)O)c3)cc2S1(=O)=O` [Example 27] and `CN1[C@H](C2CCCCC2)CN(c2ccccc2)c2cc(Cl)c(-c3cccc(C(=O)O)c3O)cc2S1(=O)=O` [Example 148] fall in the same range of EC50: 100 to 1000 nM for the first, 100 to 1000 nM for the second.

First: CCCCCCCC[C@@H]1CN(c2ccccc2)c2cc(Cl)c(-c3cc(F)c(F)c(C(=O)O)c3)cc2S(=O)(=O)N1C [Example 83]
Second: CCCCC[C@@H](C)Oc1cc2c(cc1-c1ccc(F)c(C(=O)O)c1)S(=O)(=O)N(C)[C@H](C1CCCCC1)CN2c1ccccc1 [Example 355]
The EC50 of the first is higher: > 1000 nM for the first, < 100 nM for the second. The second is the more potent here.
